Reference: US11077136B2, “Compositions for the skin” (BIOIBERICA, S.A.U., priority 2016, dated 2021)

System: Human dermal fibroblasts (HDF)
Experiment: In vitro wound closure (healing activity) test, area covered with cells
Type: cell-based
Settings: 48 hours; O-3 0.156 mg/mL, HA 0.0017 mg/mL, DS 0.0004 mg/mL, N 0.0818 mg/mL, ZnO 0.0027 mg/mL; FIG. 4 and 5; p<0.05 where significant
Excerpt: Human dermal fibroblasts (HDF) were used, which were cultivated in dishes with 24 wells with a surface area of 1.99 cm^2, with a density of 7×10^4 cells/well. A mark was made in a straight line approximately 2 mm wide on the surface of the single layer of cells using a sterile plastic tip, creating an area free of cells. […]
The cells were then allowed to migrate to the center of the dish, to cover the area free of cells, in the presence of the compounds being studied, and the area covered with cells was quantified after 48 hours using the TIRF Automated Inverted Microscope—ScanR Olympus […] and a 4× objective lens (total amplification 40×). […]
To determine the healing activity of each treatment, the area covered by cells was quantified, in μm^2, before (T0 h) and after (48 h) the treatment, using image analysis using the software Image J. The results were compared with those obtained for the negative and positive controls.

Q: How did the “increase in healing (area covered with cells) versus negative control” value turn out when `[O]=[Zn]` [ZnO, Zinc oxide] was run?
A: did not cause a significant increase in healing
